Measurements from a melting point compilation (Tetko et al.; mined from patent text by program, amines drawn as free bases though some values may be those of a salt).

| melting point [°C] | SMILES |
| --- | --- |
| 105 to 106 | COc1ccc(CCNC(=O)C(F)(F)F)cc1NC(C)=O |
| 249 to 254 | Cc1cc2c(c3c1sc1ccc(O)cc13)C(=O)N(CCN(C)C)C2=O |
| 110 to 111 | COc1ccc2c(c1OC)C(=O)c1ccccc1-2 |
| 200 to 202 | O=C(O)Cc1cccc2c(-c3ccc(Cl)cc3)onc12 |
| 222 | COc1ccc(N2CCN(c3ccc(NC(=S)NC(C)(C)CO)cc3)CC2)cc1 |
| 110 to 112 | COCC(=O)c1ccc(Br)nc1 |
| 188 to 190 | Cc1nc2cc3c(cc2o1)C1(CO3)C(=O)N(CC2CCCO2)c2ccccc21 (configuration not stated) |
| 270 | O=C(O)c1cc2cc(F)c(F)cc2o1 |
| 158 to 160 | N#Cc1ccc2[nH]cc(C3=CCC4(CC3)OCCO4)c2c1 |
| 109 to 110 | COc1ccc(C(=O)c2ccc(OCc3nc(-c4ccccc4)oc3C)cc2C)c(O)c1 |
| 91 to 93 | Cc1ccccc1-c1cc(O)ncc1C(=O)N(C)Cc1cc(C(F)(F)F)cc(C(F)(F)F)c1 |
| 125 | CCC(=O)C1=C(O)CC(c2ccc3ccccc3c2)CC1=O (configuration not stated) |
| 130 to 131 | CC(C)c1nn(-c2ccc(C(F)(F)F)cn2)cc1CCCCOc1ccc(CC(=O)O)cc1 |
| 125 to 128 | CN1C(=O)C2C3C=CC(CC3)C2(c2ccc(Cl)c(Cl)c2)C1=O (configuration not stated) |
| 88 | CCCC(CC(=O)Nc1ccccc1)(OC)OC |
| 128 to 133 | COc1ccc(CCc2c(Cl)cncc2Cl)c2c1OC(C)(C)C2 |
| 186 to 187 | CC(=O)OCc1cc2c3ccccc3nc(=O)n2[nH]1 |
| 138 to 139 | O=Cc1ccc2ccnc(NC(=O)c3ccccc3)c2c1 |
| 62 to 63 | COc1cc2ccc(C)cc2c(C(C)C)c1OC |

| melting point [°C] | SMILES |
| --- | --- |
| 186 to 188 | CCOc1ccc2[nH]c(S(=O)Cc3cccn4ccnc34)nc2c1 (configuration not stated) |
| 246 to 247 | CC1(C)Oc2ccc(C#N)cc2C(c2ccc[nH]c2=O)C1O (configuration not stated) |
| 134 to 135 | CSc1nc(Cl)c(-c2ccccc2)c(NN)n1 |
| 48 to 53 | O=Cc1cccc(OCc2ccc3ccccc3n2)c1 |
| 271 | C#CCn1c(=O)c2c(nc(C#Cc3cccc(O)c3)n2C)n(C)c1=O |
| 73 to 79 | O=C(CCCCl)c1ccc2ccccc2c1O |
| 64 to 67 | CCCCCCCc1ccc(-c2nc(-c3ccccc3Cl)nn2C)cc1 |
| 209 to 210 | CC(C)(CC(=O)Nc1cccc(OCc2ccc3ccc(F)cc3n2)c1)C(=O)O |
| 111 to 112 | CCCOc1ccccc1-c1nc2c(CCC)nn(C)c2c(=S)[nH]1 |
| 215 to 217 | Cc1nc2c(N)nc3ccccc3c2n1OCc1ccccc1[N+](=O)[O-] |
| 75 to 78 | CCCCc1oc2ccccc2c1C(=O)NCc1ccc2c(-c3ccc(C(C)(C)C)cc3)c(OCc3nnn[nH]3)ccc2c1 |
| 199 to 201 | Cc1ccc(S(=O)(=O)NCCc2cccc(OCC(=O)Nc3nnn[nH]3)c2)cc1 |
| 205 to 208 | CNc1cc(Oc2ccc3c(C(=O)Nc4cccc(C(F)(F)F)c4)cncc3c2)ncn1 |
| 160 to 170 | CC(=O)OC[C@H]1O[C@@H](c2ccc(C)c(Cc3ccc(-c4ccc(F)cc4)s3)c2)[C@H](OC(C)=O)[C@@H](OC(C)=O)[C@@H]1OC(C)=O |
| 124 to 126 | CCN1CC(=O)N(c2c(C)cccc2Cl)C1=S |
| 155 to 156 | Cc1cc(-c2nnn(C)n2)cc(C)c1OCCCC(N)=O |
| > 250 | CCOC(=O)C1=C(C)NC(c2cnc(NC(C)=O)s2)=NC1c1ccc(F)cc1Cl (configuration not stated) |
| 73.5 to 74.5 | CCOC(=O)/C=C/c1ccc(OCOC)cc1Oc1ncc(C(F)(F)F)cc1Cl |
| 232 to 234 | Nc1n[nH]c2ncnc(Nc3cccc(Cl)c3)c12 |

| melting point [°C] | SMILES |
| --- | --- |
| 82 to 84.5 | CC(C)SCCOc1ccc(COc2cnn(C(C)(C)C)c(=O)c2Cl)cc1 |
| 79 | O=C(c1cc(F)cc(F)c1)c1cc(F)cc(F)c1 |
| 199 to 201 | COc1cc(Nc2c(C#N)cnc3cc(F)ccc23)c(Cl)cc1Cl |
| 188 to 190 | Cc1c(NC(=O)CC(C)(C)C)c(C)c2c(c1-c1ccc[nH]1)OCC2c1ccc(C(C)C)cc1 (configuration not stated) |
| 66 to 68 | CCOP(=O)(OCC)C(CCc1cc(C)nc2c(Cl)c(-c3ccccc3)nn12)P(=O)(OCC)OCC |
| 118 to 120 | CCOC(=O)C(=O)Nc1ccc2ccccc2c1 |
| 140 to 142 | CCCNC(=O)CC=Cc1ccc2c(c1)c(Cc1ccc(C(=O)OC)cc1OC)cn2CCC |
| 133 to 135 | COc1ccc2c(=O)cc(SC)sc2c1 |
| 191 to 192 | CC(C)c1nc(CO)[nH]c1Sc1cc(Cl)cc(Cl)c1 |
| 113 to 114 | CON1C=Cc2ccccc2C1 |
| 196 to 197 | CCC(C)(C)Nc1c(NCc2ccc(Cl)cc2Cl)c(=O)c1=O |
| 117 to 119 | COc1ccc(-c2nnc3c4ccccc4c(CNCCCC#N)nn23)cc1 |
| 202 to 203 | CN1C(=O)c2ccccc2CC12c1ccccc1C(=O)N2C (configuration not stated) |
| 206 to 210 | Cc1c(N2CC[C@@H](O)[C@H](C)C2)c(F)cc2c(=O)c(C(=O)O)cn(C3CC3)c12 (relative stereo) |
| 180 to 182 | CO/N=C1\CCCC[C@@H]1NC(=O)c1ncc(O[C@@H](C)C(F)(F)F)c(-c2ccc(Cl)cc2)n1 |
| 105 to 110 | COC(=O)C=C(Nc1cc(CCCl)c([N+](=O)[O-])cc1OCc1ccccc1)C(F)(F)F |
| 134 to 135 | CCn1nc2c(N)nc(C)cc2c1CC(C)(C)O |
| 136 | Brc1n[nH]c2ccccc12 |
| 69 | COc1cccc(C(=O)c2ccc(C(F)(F)F)cc2)c1 |

The next lines start with the compound.

| SMILES | melting point [°C] |
| --- | --- |
| O=C(Nc1ccc(S(=O)(=O)c2ccccc2)cc1)C(O)(C(F)F)C(F)F | 105 to 108 |
| CCCCCCCCCCCCCCNCc1ccc(OCc2cccc(F)c2)cc1 | 58 |
| CN(C(=O)CC(CCN1CCC(Cc2ccccc2)CC1)c1ccc(Cl)c(Cl)c1)c1ccc(Cl)cc1 (configuration not stated) | 67 to 72 |
| CCCCCN1C(=O)C(CCC(=O)OC)(NC(=O)C2CCc3ccccc3C2)c2ccccc21 (configuration not stated) | 172 to 179 |
| CN1CC2Cc3ccc(Cl)cc3C(C)(O)C2C1 (configuration not stated) | 125 to 130 |
| Cc1nnc2n1-c1ccccc1C(c1ccccc1)=NC2 | 216 to 218 |
| Nc1ncc(Cl)nc1Cl | 117 to 118 |
| CCCCCCCCCCCCCCCCCCCC(=O)Nc1ccc(NC(=O)NS(=O)(=O)c2ccc3ccccc3c2)cc1 | 179 |
| Cc1cc(C(F)(F)F)c(-c2ccc(C[C@H](NC(=O)c3c(Cl)cccc3Cl)C(=O)O)cc2)c(=O)n1C | 238 to 240 |
| CS(=O)(=O)Nc1ccc(Cc2n[nH]c3c2c(=O)n(-c2ccccc2)c2ncccc32)cc1 | 306 to 307 |
| CCCCn1cc(C(=O)Nc2nccs2)c2ccc(Cl)cc21 | 168 to 169 |
| NC(=O)c1ccc2[nH]nnc2c1 | 178 to 184 |
| OCC#Cc1ccc(Br)cn1 | 121 to 122 |
| CCC1C=C2NC(=O)CC[C@]2(C)[C@H]2CC[C@]3(C)[C@@H]([C@H](C)CCCC(C)C)CC[C@H]3[C@H]12 (some centres not stated) | 147 to 149 |
| Cc1nnc2n1-c1sc(C(N)=O)cc1C(c1ccccc1Cl)=NC2 | 230 to 232 |
| Cc1c(-c2cccnn2)ssc1=S | 193 |
| CN1C(=O)C(C(=O)OCCN2CCOCC2)N=C(c2ccccc2)c2cc(Cl)ccc21 (configuration not stated) | 162 to 166 |
| O=[N+]([O-])c1ccc(S(=O)(=O)c2ccc(Cl)cc2)nc1 | 177 to 180 |
| CCCCCCC1=NOC(=O)/C1=C\Nc1ccc(CCCCCC)cc1 | 88 to 90 |
| CCOC(=O)c1cc2oc3c(n2n1)CCCC3 | 55 to 57 |
| CC(C)(C)NS(=O)(=O)c1ccc(-c2cn(-c3cc(-c4ccc(C(F)(F)F)cc4)cc(C(F)(F)F)n3)cn2)s1 | > 250 |
| N#Cc1ccc(-c2ccc(OS(N)(=O)=O)cc2)cc1Cn1cncn1 | 179 to 180 |
| O=C(c1ccc(F)cc1)C1(c2ccc(F)cc2)CCN(Cc2ccccc2)CC1 | 136 to 138 |

| SMILES | melting point [°C] |
| --- | --- |
| CCCCc1nc(CC(NC(C)=O)(C(=O)OCC)C(=O)OCC)c[nH]1 | 80 to 92 |
| NS(=O)(=O)c1cc(C(=O)O)cc([N+](=O)[O-])c1-c1ccccc1 | 119 to 121 |
| Cn1c(=O)c2nc(-c3ccc(/C=C/C(=O)O)cc3)[nH]c2n(Cc2ccccc2)c1=O | > 300 |
| Nc1ccc2[nH]cc(C3=CCN4CCCC4C3)c2c1 (configuration not stated) | 208 to 210 |
| NC(=O)NC1CCCCCC1 | 203 to 204 |
| O=[N+]([O-])c1ccc(-c2ccc(Cl)cc2)cc1 | 142 to 145 |
| CNC(=O)C1CCCCN1C(=O)OC(C)(C)C (configuration not stated) | 83 to 83.5 |
| Cc1cc(C(=O)O)cc(C)c1OCCNC(=O)C1Cc2ccccc2N1S(=O)(=O)c1ccc(-c2cccc(C(F)(F)F)c2)cc1 (configuration not stated) | 120 to 126 |
| C=Cc1ccc(O)c(-n2nc3ccccc3n2)c1 | 98 to 99 |
| O=C(O)c1cnc2n(c1=O)CCc1cc(O)c(O)cc1-2 | 308 to 314 |
| COC(=O)c1cnco1 | 35 to 50 |
| O=C(CCCN1CCCCC1)c1ccc2sc3ccc(C(=O)CCCN4CCCCC4)cc3c2c1 | 93 to 95 |
| COC1(OC)CC2CC[C@@]1(CS(=O)(=O)N(C(C)C)C(C)C)C2(C)C | 73.8 to 74.6 |
| C#CCOc1cc2c(cc1F)CCC2CCNC(=O)CC (configuration not stated) | 78 to 81 |
| CNC(=O)c1cccc(F)c1Nc1nc(Nc2ccc3c(c2)N(C(C)=O)CC(=O)NC3)ncc1Cl | 179 to 185 |
| O=C(O)c1c([N+](=O)[O-])ccc2c1OCO2 | 166 to 173 |
| CC(C)(C)OC(=O)N1C[C@H](OS(C)(=O)=O)C[C@H]1CO | 95 to 96 |
| O=C(Nc1cccc(Cl)c1C(=O)O)c1cccc(F)c1 | 216 to 219 |
| O=C(O)c1ccc(C2=CCC3CCC2C3)cc1 (configuration not stated) | 180 to 181 |
| OCC(Nc1ncnc2nc[nH]c12)c1ccccc1 (racemic) | 130 to 138 |
| O=C(NC(Cc1ccc(OCc2ccccc2)cc1)C(=O)O)c1nc2ccc(-c3ccc(Cl)cc3)cc2[nH]1 (configuration not stated) | 260 to 261 |
| CN(C)C(=O)NS(=O)(=O)c1ccccc1OC(Cl)=CCl | 218 to 220 |
